Results reported in patent US20220002267A1, “TYROSINE KINASE 2 INHIBITORS, PREPARATION METHODS AND MEDICINAL USES THEREOF” (Eternity Bioscience Inc., priority 2020, published 2022).

How the values were obtained:
Tyk2 JH2 Pseudokinase = molecular target: T1, Tyk2 JH2 Pseudokinase (Homo sapiens, UniProt P29597); assay: KdELECT Competition Binding Assay; conditions: 11-point 3-fold dilution series; performed by Eurofins DiscoverX
T1 construct: purchased Eurofins DiscoverX Corporation (CRO); host or cells: E. coli BL21-derived host (T7 phage) or HEK-293 cells
Method: The KdELECT Competition Binding Assay is performed by a CRO, Eurofins DiscoverX Corporation following the established standard protocol (DiscoverX, San Diego, Calif.). Briefly, Kinase-tagged T7 phage strains were prepared in an E. coli host derived from the BL21 strain. E. coli were grown to log-phase and infected with T7 phage and incubated with shaking at 32° C. until lysis. The lysates were centrifuged and filtered to remove cell debris. The remaining kinases were produced in HEK-293 cells and subsequently tagged with DNA for qPCR detection. Streptavidin-coated magnetic beads were treated with biotinylated small molecule ligands for 30 minutes at room temperature to generate affinity resins for kinase assays. The liganded beads were blocked with excess biotin and washed with blocking buffer (SeaBlock (Pierce), 1% BSA, 0.05% Tween 20, 1 mM DTT) to remove unbound ligand and to reduce nonspecific binding. Binding reactions were assembled by combining kinases, liganded affinity beads, and test compounds in 1× binding buffer (20% SeaBlock, 0.17×PBS, 0.05% Tween 20, 6 mM DTT). Test compounds were prepared as 111-fold stocks in 100% DMSO. Kds were determined using an 11-point 3-fold compound dilution series with three DMSO control points. All compounds for Kd measurements are distributed by acoustic transfer (non-contact dispensing) in 100% DMSO. The compounds were then diluted directly into the assays such that the final concentration of DMSO was 0.9%. All reactions performed in polypropylene 384-well plate. Each was a final volume of 0.02 mL. The assay plates were incubated at room temperature with shaking for 1 hour and the affinity beads were washed with wash buffer (1×PBS, 0.05% Tween 20). The beads were then re-suspended in elution buffer (1×PBS, 0.05% Tween 20, 0.5 μM non-biotinylated affinity ligand) and incubated at room temperature with shaking for 30 minutes. The kinase concentration in the eluates was measured by quantitative PCR.
Compound Handling: An 11-point 3-fold serial dilution of each test compound was prepared in 100% DMSO at 100-fold final test concentration and subsequently diluted to 1-fold in the assay (final DMSO concentration=1%). Most Kds were determined using a compound top concentration=30,000 nM. If the initial Kd determined was <0.5 nM (the lowest concentration tested), the measurement was repeated with a serial dilution starting at a lower top concentration.

[1] = tested on: Tyk2-mediated, IL23-induced STAT3 phosphorylation in human Kit225 T cell line; assay: IL-23_Kit225 T Cell Assay (phosphorylated-STAT3, AlphaLISA); type: cell-based; conditions: Kit225 cells, compound 1 hour, human recombinant IL-23 20 minutes, pSTAT3
Method: (§1) Kit225 cells (licensed from Professor Toshiyuki Hori, Ritsumeikan University, Japan) were seeded in 384-well plate at a density of 1×10^5 cells/well in 4 μL Hank's Balanced Salt Solution (HBSS, Gibco), and incubated for 2 hours in a humidified, 5% CO2 cell culture incubator at 37° C. The cells were treated with serial diluted compounds for 1 hour and stimulated with human recombinant IL-23 (R&D Systems) for 20 minutes. The treated cells were then lysed and cellular phosphorylated-STAT3 levels were measured by AlphaLISA (PerkinElmer) according to the manufacture's instructions. Inhibition data were calculated by comparison to vehicle control wells for 0% inhibition and non-stimulated control wells for 100% inhibition. Dose response curves were then generated to determine the concentration required to suppress 50% of cellular response (IC50) as derived by non-linear regression analysis using GraphPad Prism.

[2] = tested on: Tyk2-mediated, IFNα-induced STAT1 phosphorylation in human Kit225 T cell line; assay: IFNα_Kit225 T Cell Assay (phosphorylated-STAT1, AlphaLISA); type: cell-based; conditions: Kit225 cells, compound 1 hour, human recombinant IFNα 20 minutes, pSTAT1; read-out: IFN-α Kit225 (IC50)
Method: as §1, with “cells” for “cells (licensed from Professor Toshiyuki Hori, Ritsumeikan University, Japan)”, “0.5×10^5” for “1×10^5”, “HBSS,” for “Hank's Balanced Salt Solution (HBSS, Gibco),”, “IFNα (Biolegend)” for “IL-23 (R&D Systems)”, “phosphorylated-STAT1” for “phosphorylated-STAT3”

[3] = tested on: experimental autoimmune disease models (psoriasis, SLE, and IBD); conditions: cited from earlier work
[4] = tested on: IL-12/IL-23 and Type I IFN pathways; conditions: Tokarski et al. 2015; cited from earlier work

T1 sequence (P29597 589-875 limits assumed): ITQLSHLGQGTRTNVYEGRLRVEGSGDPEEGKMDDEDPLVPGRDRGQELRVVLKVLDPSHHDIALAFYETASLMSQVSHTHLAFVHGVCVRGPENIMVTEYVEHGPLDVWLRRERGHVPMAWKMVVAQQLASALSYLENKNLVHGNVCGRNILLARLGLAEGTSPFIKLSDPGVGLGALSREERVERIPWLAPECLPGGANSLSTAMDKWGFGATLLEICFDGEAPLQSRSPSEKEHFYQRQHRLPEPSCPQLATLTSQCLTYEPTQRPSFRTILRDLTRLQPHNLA

Row | Kd (Tyk2 JH2 Pseudokinase) [nM] | IC50 [1] [nM] | IC50 [2] [nM] | Compound | in vivo efficacy in experimental autoimmune disease models [3] | block of IL-12/IL-23 and Type I IFN pathways [4]
1 | 0.067 | 6.7 | 11 | CNC(=O)c1nnc(Nc2ccc(N3CCC3)cn2)cc1Nc1cccc(-c2ncn(C)n2)c1OC [Example A1, 6-((5-(azetidin-1-yl)pyridin-2-yl)amino)-4-((2-methoxy-3-(1-methyl-1H-1,2,4-triazol-3-yl)phenyl)amino)-N-methylpyridazine-3-carboxamide] | – | –
2 | 0.0063 | 31 | 25 | CNC(=O)c1nnc(Nc2ccc(N3CC(F)(F)C3)cn2)cc1Nc1cccc(-c2ncn(C)n2)c1OC [Example A2, 6-((5-(3,3-difluoroazetidin-1-yl)pyridin-2-yl)amino)-4-((2-methoxy-3-(1-methyl-1H-1,2,4-triazol-3-yl)phenyl)amino)-N-methylpyridazine-3-carboxamide] | – | –
3 | 0.011 | 15 | 6 | CNC(=O)c1nnc(Nc2cccc(N3CCC3)n2)cc1Nc1cccc(-c2ncn(C)n2)c1OC [Example A3, 6-((6-(azetidin-1-yl)pyridin-2-yl)amino)-4-((2-methoxy-3-(1-methyl-1H-1,2,4-triazol-3-yl)phenyl)amino)-N-methylpyridazine-3-carboxamide] | – | –
4 | 0.0052 | 5.9 | 83 | [2H]C([2H])([2H])NC(=O)c1nnc(Nc2ccc(N3CC(OC)C3)cn2)cc1Nc1cccc(-c2ncn(C)n2)c1OC [Example A4, 4-((2-methoxy-3-(1-methyl-1H-1,2,4-triazol-3-yl)phenyl)amino)-6-((5-(3-methoxyazetidin-1-yl)pyridin-2-yl)amino)-N-(methyl-d3)pyridazine-3-carboxamide] | – | –
5 | 0.0043 | 38 | 230 | [2H]C([2H])([2H])NC(=O)c1nnc(Nc2ccc(C3(O)COC3)cn2)cc1Nc1cccc(-c2ncn(C)n2)c1OC [Example A5, 6-((5-(3-hydroxyoxetan-3-yl)pyridin-2-yl)amino)-4-((2-methoxy-3-(1-methyl-1H-1,2,4-triazol-3-yl)phenyl)amino)-N-(methyl-d3)pyridazine-3-carboxamide] | – | –
6 | – | – | – | BMS986165 | substantial in vivo efficacy | effectively block
